Reference: US6844320B1, “Treatment of preeclampsia, toxemia and preterm labor with combination of progestational agent and a nitric oxide synthase substrate and/or donor” (Board of Regents, The University of Texas System, priority 1993, dated 2005)
Entries after “also recorded” stand apart in the source; their conditions may differ. Marks after values point to notes of the source that are not given here.

How the values were obtained:
[1] = tested on: spontaneously contracting uterine strips from rat; assay: Relaxation of spontaneously contracting uterine strips in muscle baths; assay type: cell-based
Experimental: The tissues were obtained on days 17-22 (d17, d18, d19 and d22) of gestation, on day 22 (d22 del) during spontaeous delivery (1-3 pups delivered), or on 1 (d1pp) and 2 (d2pp) days postpartum. […] Data are analyzed by repeated measures ANOVA on seven groups. […] Each data point represent mean±S.E.M. The total number of strips studied at each time period was 8-16 from 4-6 animals per group.
Each upstroke from baseline represents a contraction.
In the experiments whose results are shown by the graph of FIG. 2, the tissues were obtained on days 17-22 (d17, d18, d19 and d22) of gestation, on day 22 (d22 del) during spontaneous delivery (1-3 pups delivered), or on 1 (d1pp) and 2 (d2pp) days postpartum. […] Each data point represent mean±SEM. The total number of strips studied at each time period was 8-16 from 4-6 animals per group.

[2] = tested on: pregnant rats; assay: L-NAME infusion in pregnant rats: blood pressure; assay type: in vivo, rat
Description: The data in Table 1 below show the effects of L-NAME infusion on blood pressure (mm Hg) in pregnant rats.

[3] = tested on: pregnant rats; assay: L-NAME infusion to pregnant rats: delivery and pups delivered; assay type: in vivo
Description: The data in Table 2 below show the delivery and the pups delivered of L-NAME infusion to pregnant rats.

[4] = tested on: L-NAME-induced "preeclampsia" animals; assay: L-NAME-induced "preeclampsia": blood pressure and fetal weights; assay type: in vivo; details: for Effect on L-NAME-induced hypertension (blood pressure): 50 mg L-NAME (FIG. 5); for Effect on fetal weights (pup weights): same L-NAME-treated "preeclamptic" animals (FIG. 6)

Question: How did the “Effect on the relaxation produced by L-arginine” value ([1]; 3 mM (FIG. 1B)) turn out when COC(=O)[C@@H](N)CCCNC(=N)N[N+](=O)[O-] [L-NAME, N^G-nitro-L-arginine methyl ester] was run?
Answer: reversed

Question: And the “Blood Pressure” value ([2]; L-NAME 25 mg/day infusion, gestation Day 15)?
Answer: 119 ± 2^a mm Hg

Question: And the “Blood Pressure” value ([2]; L-NAME 25 mg/day infusion, gestation Day 18)?
Answer: 144 ± 4^b mm Hg

Question: And the “Blood Pressure” value ([2]; L-NAME 25 mg/day infusion, gestation Day 22)?
Answer: 146 ± 2^b mm Hg

Question: What about the “Blood Pressure” value ([2]; L-NAME 50 mg/day infusion, gestation Day 15) of the same compound?
Answer: 123 ± 3^a mm Hg

Question: What about the “Blood Pressure” value ([2]; L-NAME 50 mg/day infusion, gestation Day 18) of the same compound?
Answer: 166 ± 2^c mm Hg

Question: And the “Blood Pressure” value ([2]; L-NAME 50 mg/day infusion, gestation Day 22)?
Answer: 168 ± 3^c mm Hg

Question: What about the “Day of Delivery” value ([3]; L-NAME 25 mg/day) of the same compound?
Answer: 22.4 ± 0.2

Question: What about the Weight of pups ([3]; L-NAME 25 mg/day) of the same compound?
Answer: 5.05 ± 0.08^b

Question: What about the “# of dead pups” value ([3]; L-NAME 25 mg/day, 9 animals) of the same compound?
Answer: 5

Question: And the “Day of Delivery” value ([3]; L-NAME 50 mg/day)?
Answer: 22.7 ± 0.2

Question: And the Weight of pups ([3]; L-NAME 50 mg/day)?
Answer: 4.56 ± 0.10^c

Question: And the “# of dead pups” value ([3]; L-NAME 50 mg/day, 10 animals)?
Answer: 10

Question: N=C(N)NCCC[C@H](N)C(=O)O [L-arginine] was tested. Which “Duration of complete inhibition of spontaneous uterine contractions” value ([1]; 0.1 mM to 10 mM, strips from days 17-22 of gestation, delivery, postpartum (FIG. 2)) did it give?
Answer: dose-dependent

Question: What about the “Relaxation of spontaneously contracting tissues” value ([1]; 1 mM (FIG. 1E), repeatable in the same strip) of the same compound?
Answer: produced relaxation

Question: What about the “Relaxation of spontaneously contracting uterine strips” value ([1]; 1-3 mM, rat day 18 of gestation (FIG. 1 A, B, E)) of the same compound?
Answer: substantial relaxations

Question: And the “Relaxation effects during spontaneous delivery at term and postpartum, compared to all other times” value ([1]; from concentrations of 1 mM (FIG. 2))?
Answer: significantly (P<0.01) decreased

Question: And the “Effect on L-NAME-induced hypertension (blood pressure)” value [4]?
Answer: partially reduced blood pressure

Question: What about the “Effect on fetal weights (pup weights)” value [4] of the same compound?
Answer: slightly but statistically significant, elevated fetal weights

Question: How did the “Relaxation of spontaneously contracting uterine strips” value ([1]; 0.1 mM, rat day 18 of gestation (FIG. 1D)) turn out when [N]=O [nitric oxide] was run?
Answer: substantial relaxations; also recorded: relaxation

Question: How did the “Effect on the relaxation effect of L-arginine (1 mM)” value ([1]; 0.1 mM, added before the application of L-arginine) turn out when CN(C)c1ccc2nc3ccc(=[N+](C)C)cc-3sc2c1 [methylene blue] was run?
Answer: abolished

Question: And the “Effect on the relaxation produced by L-arginine” value ([1]; (FIG. 1E))?
Answer: reversed

Question: Which results are given for CCC(=O)[C@@]1(C)CC[C@H]2[C@@H]3CCC4=CC(=O)CCC4=C3CC[C@@]21C [R 5020, promegestone]?
Answer: Effect on L-NAME-induced hypertension (blood pressure) [4]: partinally reduced; Effect on fetal weights (pup weights) [4]: slightly but statistically significant, elevated fetal weights
